Experimental data from US8630703B2, “Treatment utilizing hydrophobic weak bases chemotherapeutic agents and illumination” (Technion Research & Development Foundation Limited, priority 2011, dated 2014).
Like-named read-outs stand apart in the source and are kept apart here.

Columns and labels:
[1] = test system: human dermis derived endothelial cells (HMEC); assay: Fluorescence microscopy of endothelial cells; type: cell-based; details: 1 μM, blue light (420 nm)
Description: Endothelial cell lines RF24 and HMEC, were provided by Dr. H. Pannekoek (CLB, Amsterdam, Netherlands) and Dr. D van der Schaft (Maastricht University), respectively.
(§1) Freshly-isolated human umbilical vein endothelial cells (HUVEC), RF24 immortalized HUVEC cells, and human dermis derived endothelial cells (HMEC) were obtained and grown in vitro as described in the Materials and Methods section hereinabove. The cells were then seeded at 10^4 cells/well in a 24-well tissue culture plate. Twenty four hours after seeding, the cells were incubated for 1 hour with 10 or 1 μM of either C-1375, C-1379 or sunitinib. After this incubation, the cells in the 24-well plates were evaluated by fluorescence microscopy. For excitation and detection of imidazoacridinones (IAs) or sunitinib, the microscope was equipped with a filter set (Nikon) characterized by excitation wavelengths of 420±20 nm and emission wavelengths of >470 nm.

[2] = test system: MDR SW/2R160 and 2008/MRP1 cells; assay: XTT cytotoxicity, result stated jointly for MDR cells; type: cell-based
Description: (§2) Parental cells and their MDR (multi-drug resistant) sub-lines were seeded in 96-well plates (2×10^4 cells/well in 90 μl growth medium/well). […] Following incubation for 2 hours, the drug-containing medium was replaced by drug-free medium. The cells were then placed on an illuminator plate (Model 460, thin line series, S&S X-Ray Products Inc., Brooklyn, N.Y.) for 1 hour, thereby achieving a light dose of 5 J/cm^2 white light. After illumination, plates were further incubated for an additional 24 hours.
(§3) Cell viability was determined using an XTT (2,3-bis-(2-methoxy-4-nitro-5-sulfophenyl)-2H-tetrazolium-5-carboxanilide) Cell Proliferation Kit (Biological Industries). The drug concentrations required to inhibit cell growth by 50% (i.e., IC50 values) were determined from the cell survival curves in the absence and in the presence of illumination. Results are presented as mean values of at least three independent experiments.

[3] = test system: SW1573 cells; assay: XTT cytotoxicity assay with and without illumination
Description: as §2
(§4) Cell viability was determined using an XTT (2,3-bis-(2-methoxy-4-nitro-5-sulfophenyl)-2H-tetrazolium-5-carboxanilide) Cell Proliferation Kit (Biological Industries). […] Results are presented as mean values of at least three independent experiments.

[4] = test system: human umbilical vein endothelial cells (HUVEC); assay: Fluorescence microscopy of endothelial cells; type: cell-based; details: 1 μM
Description: Human umbilical vein endothelial cells (HUVEC) were isolated by perfusion of umbilical veins (Department of Obstetrics and Gynaecology, VU University Medical Center) with trypsin. Cells were routinely cultured in RPMI-1640 medium (Life Technologies, Breda, The Netherlands) supplemented with 10% heat-inactivated human serum, 10% heat-inactivated FCS, 2 mM L-glutamine (Life Technologies, Netherlands), […] streptomycin and 50 U/ml penicillin (ICN Biomedicals) in a 0.2% gelatin coated 75 cm^2 tissue culture flask at 37° C. in an atmosphere with 5% CO2. HUVEC used for experiments were cultured without addition of extra growth factors and used for experiments between passage 2 and 4.
as §1, with “For excitation and detection of imidazoacridinones (IAs) or sunitinib, the microscope was equipped with a filter set (Nikon) characterized by excitation wavelengths of 420±20 nm and emission wavelengths of >470 nm.” left out

[5] = test system: A549/K1.5 cells; assay: XTT cytotoxicity assay with and without illumination; type: cell-based, Human; details: A549/K1.5
Description: Human non-small cell lung cancer A549 cells and their ABCG2-overexpressing MDR (multi-drug resistant) A549/K1.5 sub-line; ovarian carcinoma cell line 2008 and its stable MRP1-transfectant 2008/MRP1; and human non-small lung cancer cell line SW1573 and its ABCB1-overexpressing subline SW1573/2R160) were maintained in RPMI-1640 medium supplemented with 10% fetal bovine serum, 2 mM glutamine, 100 μg/ml penicillin and streptomycin (Biological Industries, Beth-Haemek, Israel) in a humid atmosphere containing 5% CO2 at 37° C.
as §2, §3

[6] = Absorption, emission and excitation spectra; type: physicochemical; details: aqueous 0.9% NaCl
Description: Stock solutions containing sunitinib or the imidazoacridinones (IAs) C-1375 and C-1379 in 100% dimethyl sulfoxide were diluted with aqueous 0.9% NaCl solution under continuous stirring. Absorption spectra were recorded with a two-beam Cary 500 UV-VIS-NIR spectrophotometer (Varian) in 1 cm long Suprasil® quartz cuvettes (Hellma), at an average scan speed of 600 nm/minute, at 20° C. The steady state emission and excitation spectra were recorded with an LS 50B luminescence spectrometer (Perkin-Elmer).

[7] = test system: chicken chorioallantoic membrane (CAM) vasculature; assay: Chorioallantoic membrane (CAM) model of photodynamic therapy; type: in vivo; details: 100 μg/embryo i.v.; 420 nm, 20 J/cm^2, 1 minute after injection; 24 hours after treatment
Description: Fertilized chicken eggs (Animalco AG) were labeled and transferred into a hatching incubator with a relative air humidity of 65% and a temperature of 37° C. The incubator was equipped with an automatic fan (Savimat). On embryonic development day (EDD) 3, a hole of approximately 3 mm in diameter was opened in the eggshell above the air pouch of the egg and covered with Parafilm® wrapping film (Pechiney) to prevent dehydration and possible infections. The eggs were then returned to the incubator in a static position until use. On EDD 11, the hole in the shell was extended to a diameter of approximately 3 cm in order to provide better access to the chorioallantoic membrane (CAM) during experiments.
Eggs were placed under an Eclipse 600 FN epi-fluorescence microscope equipped with a Plan Apo 4/0.2, working distance 20 objective (Nikon). Microscopic observation and illumination of a region of the CAM was performed as described previously [Lim et al., Photochem Photobiol 2010, 86:397-402; Lim et al., J Med Chem 2010, 53:2865-2874; Nowak-Sliwinska et al., Angiogenesis 2010, 13:281-292]. Illumination was provided by a 100 W high pressure Hg-arc lamp. Light doses were adjusted with neutral density filters and measured with a calibrated Field-Master GS power meter (Coherent Inc.). Fluorescence images were acquired with an F-view II 12-bit monochrome Peltier-cooled digital CCD camera driven with analySIS DOCU software (Soft Imaging System GmbH).
For excitation and detection of imidazoacridinones (IAs) or sunitinib, the microscope was equipped with a filter set (Nikon) characterized by excitation wavelengths of 420±20 nm and emission wavelengths of >470 nm,
After the treatment the eggs were numbered, covered and returned to the incubator. Each treatment group included 5 eggs.
Chorioallantoic membranes (CAMs) were intravenously injecting chorioallantoic membranes with 20 μl of a solution of FITC-dextran (20 kDa, 25 mg/ml). Fluorescence angiography was then performed using light from an Hg-arc lamp and light filters (Nikon) which provided excitation wavelengths of 470±20 nm and emission wavelengths of >520 nm for observing the fluorescence. In order to increase the quality of the recorded angiographs, a light absorber, in the form of India ink, was injected (30 μl) into the extra-embryonic cavity. The purpose of this second injection was to decrease the influence of the CAM auto-fluorescence background, which changes rapidly with time due to the embryo's movement. The India ink was filtered shortly before injection, using a sterile cellulose acetate membrane with 0.2 μm pores (Renner GmbH).
Photodynamic therapy (PDT) was performed at embryo development day (EDD) 11, at which stage the CAM is fully developed and contains a vessel network with a regular capillary plexus. The imidazoacridinones were intravenously injected into the main vessel of the CAM through a 33-gauge needle fitted to a 100 μl syringe (Hamilton), at a concentration of 1 mg/ml and a volume of 100 μl, which corresponds to a dose of 100 μg, or approximately 10 mg/kg embryo body weight.
One minute after injection, a region of the CAM which contained vessels of diameters in a range of 5 to 70 μm was illuminated (420±20 nm) at a light dose of 20 J/cm^2 and an irradiance of […]. […]
The illuminated area was 0.02 cm^2, as delimited by an optical diaphragm. The fluorescence of sunitinib was visible in the vasculature of the CAMs prior to PDT.

[8] = test system: 2008/MRP1 cells; assay: XTT cytotoxicity assay with and without illumination
Description: as §2, §4

[9] = test system: SW1573/2R160 cells; assay: as above
Description: Cells were grown in drug-free conditions for one week before any analysis.
as §2, §4

[10] = test system: 2008 cells; assay: as above
Description: as §2, §4

[11] = test system: A549 cells; assay: as above
Description: as §2, §4

SMILES: COc1ccc2c(c1)c(=O)c1c(NCCCN(C)C)ccc3nc(C)n2c31 [C-1375]
- photodestruction of lysosomes [1]: lysosome destruction and accumulation of C-1375 in the nuclei also occurred
- IC50 ([2]; illumination, read-out: IC50 with illumination): 0.09 to 0.33 µM
- IC50 ([2]; no illumination, read-out: IC50 in the absence of illumination): 3.3 to 5.5 µM
- Fold sensitization ([3]; control vs illumination): 24
- C-1375 LD50 Illumination ([3]; illumination): 233 ± 5 nM
- Survival at 1000 nM Illumination ([3]; illumination): 11 ± 2%
- C-1375 LD50 Control ([3]; no illumination): 5.535 ± 0.596 µM
- Survival at 1000 nM Control ([3]; no illumination): 68 ± 6%
- photodestruction of lysosomes ([4]; approximately 2 minutes of illumination): most of the lysosomes had disappeared
- photodestruction of lysosomes ([4]; illumination 1 minute (420 nm)): many lysosomes were destroyed
- Fold sensitization ([5]; control vs illumination): 10
- LD50 Control ([5]; no illumination): 5.264 ± 0.877 µM
- Survival at 3000 nM Control ([5]; no illumination): 70 ± 5%
- LD50 Illumination ([5]; white light 1 hour (5 J/cm^2)): 541 ± 56 nM
- Survival at 3000 nM Illumination ([5]; white light illumination): 3 ± 0.6%
- Peak absorption [6]: 444 nm
- Peak emission [6]: 553 nm
- Peak excitation [6]: 449 nm
- vascular effect in illuminated area [7]: vaso-occlusion within the illuminated area
- Fold sensitization ([8]; control vs illumination): 51
- C-1375 LD50 Illumination ([8]; illumination): 101 ± 0.1 nM
- Survival at 1000 nM Illumination ([8]; illumination): 13 ± 3%
- C-1375 LD50 Control ([8]; no illumination): 5.115 ± 0.889 µM
- Survival at 1000 nM Control ([8]; no illumination): 80 ± 2%
- Fold sensitization ([9]; control vs illumination): 13
- C-1375 LD50 Illumination ([9]; illumination): 330 ± 56 nM
- Survival at 1000 nM Illumination ([9]; illumination): 24 ± 4%
- C-1375 LD50 Control ([9]; no illumination): 4.384 ± 0.125 µM
- Survival at 1000 nM Control ([9]; no illumination): 74 ± 3%
- Fold sensitization ([10]; control vs illumination): 36
- C-1375 LD50 Illumination ([10]; illumination): 90 ± 9 nM
- Survival at 1000 nM Illumination ([10]; illumination): 11 ± 4%
- C-1375 LD50 Control ([10]; no illumination): 3.28 ± 0.345 µM
- Survival at 1000 nM Control ([10]; no illumination): 72 ± 0.8%
- Fold sensitization ([11]; control vs illumination): 14
- Survival at 3000 nM Control ([11]; no illumination): 50 ± 3%
- LD50 Control ([11]; no illumination, 2 h drug, XTT 24 h later): 3.054 ± 0.26 µM
- LD50 Illumination ([11]; white light 1 hour (5 J/cm^2)): 212 ± 29 nM
- Survival at 3000 nM Illumination ([11]; white light illumination): 3 ± 2%
